We go through one compound from publication PMC5996347, “2-Mercapto-Quinazolinones as Inhibitors of Type II NADH Dehydrogenase and Mycobacterium tuberculosis: Structure–Activity Relationships, Mechanism of Action and Absorption, Distribution, Metabolism, and Excretion Characterization” (ACS Infectious Diseases, 2018).

One data set deals with piniBAC reporter strain. In kind it is cell-based, Mycobacterium tuberculosis. To be noted: upregulation of iniBAC promoter.
A further data set in a line: physchem. In kind it is physicochemical. To be noted: pH 7.4. As for the experimental part: The chromatographic hydrophobicity index (CHI) was determined according the method previously described.[43],[44] Briefly, test compounds were prepared as 0.5 mM solutions in 50:50 acetonitrile/water and analyzed by reversed-phase HPLC-UV (wavelength 254 nm) using a Phenomenex Luna C18 100 Å, 150 × 4.6 mm, 5 μm column with a gradient of aqueous phase (50 mM ammonium acetate (pH 7.4)) and mobile phase (acetonitrile). By plotting the retention time of a set of reference compounds against known CHI values, the CHI value of test compounds was calculated according to their retention time.

The nature of data set [1]: Calculated properties (StarDrop).
The next data set can be described thus: Mouse pharmacokinetics. Format: in vivo, female C57Bl/6 mice. To be noted: female. As for the experimental part: Test compound was dosed as a bolus solution intravenously at 3 mg free base/kg (dose volume: 5 mL/kg; dose vehicle: 10% DMSO; 40% PEG400; 50% saline) to female C57Bl/6 mice (n = 3) or dosed orally by gavage as a suspension at 10 or at 5, 30, or 100 mg free base/kg (dose volume: 10 mL/kg; dose vehicle: 1.0% carboxy methyl cellulose) to female C57Bl/6 mice (n = 3/dose level). Blood samples were taken from each mouse tail vein at predetermined time points postdose, mixed with nine volumes of distilled water, and stored frozen until UPLC-MS/MS analysis. Pharmacokinetic parameters were derived from the blood concentration time curve using PK Solutions software v 2.0 (Summit Research Services, USA).

A further data set concerns MTb H37Rv. As to the kind of experiment: Intracellular ATP levels (BacTiter-Glo). The following applies: 24 h drug exposure.
[2] abbreviates: C57Bl/6, mouse, in vivo, po, 10 mg/kg.

In general, chromatographic logD refers to a lipophilicity value derived from retention on a column. Low values mean a more hydrophilic compound, high ones a more lipophilic compound. A word on the Vd: it is the apparent volume that relates the amount in the body to the concentration in plasma or blood. High values mean extensive tissue distribution, low ones confinement near the circulation. For orientation: bioavailability means the share of a dose that reaches the circulation, judged against a reference dose that is usually intravenous. High values mean much systemic uptake, low ones little systemic uptake. In general, AUC(0-t) refers to exposure summed from dosing to a finite time, without extrapolation to infinity. One may read the Cmax as the highest concentration seen after dosing. A word on the half-life: it is the time in which the quantity being followed falls by half. Regarding `O=C(CSc1nc2ccccc2c(=O)[nH]1)NC1CCCCC1` [Compound 1, N-Cyclohexyl-2-((4-oxo-3,4-dihydroquinazolin-2-yl)thio)acetamide], the pini-LUC reporter entry with piniBAC reporter strain is recorded as “Not likely cell wall inhibitor”. In “physchem”, this compound registered a chromatographic logD of 1.8. Also, in data set [1], the PFI is listed as 4.7. For the same compound, in the data set “Mouse pharmacokinetics” (C57Bl/6, mouse, in vivo), the Clb is listed as 23 mL/min/kg, the distribution volume (Vd) was 0.8 L/kg and the bioavailability turned out to be 46%. In “Mouse pharmacokinetics” (setting [2]), this compound had an AUC(0-t) of 2610 ng·h/mL and a Cmax of 748 ng/mL. In “Mouse pharmacokinetics” (C57Bl/6, whole blood, C57 mouse PK at 3 iv and 10 po (mg/kg), 1 free base, 7 HCl salt), the half-life is 90 min. The “HepG2 cytotoxicity (in words)” value in the data set with HepG2 was “no noticeable cytotoxicity”. In the data set on MTb H37Rv, the “Cellular ATP levels in MTb” value is “depletion of cellular ATP levels”.
